Where two headings read alike, the source gives them in different places.
Assays:
[1] = tested on: human dermal fibroblast (HDF) primary cells; assay: H2O2-resistance in primary human dermal fibroblasts; type: cell-based; details: for fold induction at 10 µM: Homo sapiens; for Assay 6: H2O2-resistant, at 10 uM, human dermal fibroblast (HDF) primary cells: YES/NO
FOXO3 = FOXO3 siRNA knockdown: dependency for H2O2-resistance; type: cell-based, human; details: for FOXO3-dependency for H2O2-resistance, at 10 uM - with H2O2, 1st experiment: experiment 1 (1st); for FOXO3-dependency for H2O2-resistance, at 10 uM - with H2O2, 1st experiment / FOXO3-dependency for H2O2-resistance, at 10 uM (experiment 3) - with & without H2O2 / FOXO3-dependency for H2O2-resistance (experiment 3) / FOXO3-dependency for H2O2-resistance, 1st experiment / Assay 16: FOXO3-dependency for H2O2-resistance: 10 uM; for FOXO3-dependency for H2O2-resistance (experiment 3): with & without H2O2, FOXO3 knockdown in WI-38 cells; for FOXO3-dependency for H2O2-resistance (experiment 3) / FOXO3-dependency for H2O2-resistance, 1st experiment: YES = resistance reduced by at least 50%, partial = 25% to 50%; for FOXO3-dependency for H2O2-resistance, 1st experiment: with H2O2, FOXO3 knockdown in WI-38 cells; for Assay 16: FOXO3-dependency for H2O2-resistance: YES/NO; for Requirement of FOXO3 to promote H2O2-resistance: FOXO3 siRNA, at least 2 of 3 independent experiments
WI-38 cells = assay: CdCl2 (cadmium) resistance assay; type: cell-based, human; details: for fold induction at 10 µM: Homo sapiens, 12 h; for Assay 4: H2O2- & Cd-resistant / Assay 2: Cadmium-resistant: YES/NO; for Assay 2: Cadmium-resistant: * indicates partial
Method in brief: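 Resistance to CdCl2 or MMS stress (12 h exposure) was scored in WI-38 fibroblasts pretreated with compound at 0.25–20 μM final, five doses, technical triplicates. MMS plates had compound added 24 h before MMS, after a shift to serum-free DMEM+2% BSA. Significance came from a global variance t-test over two independent runs.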

NRF2 = assay: in vitro; type: cell-based, human; details: for NRF2-dependency for H2O2-resistance, at 10 uM - with H2O2, 1st experiment: experiment 1 (1st); for NRF2-dependency for H2O2-resistance, 1st experiment / NRF2-dependency for H2O2-resistance, 2nd experiment: with H2O2, NRF2 knockdown in WI-38 cells; for Assay 17: NRF2-dependency for H2O2-resistance: YES/NO; for NRF2-dependency of H2O2-resistance (NRF2 siRNA knockdown): at least 2 of 3 independent experiments; for NRF2-dependency for H2O2-resistance, at 10 uM - with H2O2, 2nd experiment: experiment 2 (2nd)
[2] = Experiment 1, HDF cells, read-out: Experiment 1, HDF cells (under H2O2 stress treatment), at 10 uM (fold change)
[3] = Experiment 2, HDF cells, read-out: Experiment 2, HDF cells (under H2O2 stress treatment), at 10 uM (fold change)
[4] = Exp. 1, WI-38 cells, 10 uM, normalized ATP measurement, read-out: Exp. 1, under Cd2Cl2 stress treatment, at 10 uM (fold change)
[5] = Exp. 2, WI-38 cells, 10 uM, normalized ATP measurement, read-out: Exp. 2, under Cd2Cl2 stress treatment, at 10 uM (fold change)
[6] = score in summary of 38 core set hits
[7] = 10 uM, YES = resistance reduced by at least 50%, partial = 25% to 50%
[8] = WI-38 cells, 10 μM, both stressors

| SMILES | fold induction at 10 µM [1, 2] | fold induction at 10 µM [1, 3] | Assay 6: H2O2-resistant, at 10 uM, human dermal fibroblast (HDF) primary cells [1] | I = FOXO3-dependency for H2O2-resistance (FOXO3; score) | I = FOXO3-dependency for H2O2-resistance (FOXO3; summary score) | fold induction at 10 µM (WI-38 cells; [4]) | fold induction at 10 µM (WI-38 cells; [5]) | Assay 4: H2O2- & Cd-resistant (WI-38 cells) | Assay 2: Cadmium-resistant (WI-38 cells) | A = Cadmium resistant (WI-38 cells; [6]) | A = Cadmium resistant (WI-38 cells; summary score) | C = H2O2- & Cd-resistant (WI-38 cells; summary score) | NRF2-dependency for H2O2-resistance, at 10 uM - with H2O2, 1st experiment (NRF2; 10 uM) | NRF2-dependency for H2O2-resistance, 1st experiment (NRF2; [7]) | J = NRF2-dependency for H2O2-resistance (NRF2; score) | J = NRF2-dependency for H2O2-resistance (NRF2; summary score) | CdCl2-resistant (WI-38 cells) | H2O2- & CdCl2-resistant (WI-38 cells) | CdCl2-resistant (WI-38 cells; WI-38 cells, 10 μM) | H2O2- & CdCl2-resistant (WI-38 cells; [8]) | also measured |
| --- | --- | --- | --- | --- | --- | --- | --- | --- | --- | --- | --- | --- | --- | --- | --- | --- | --- | --- | --- | --- | --- |
| O=C(NCc1cccnc1)/C(=C/c1ccc(-c2ccc(Cl)cc2)o1)S(=O)(=O)c1ccccc1 [Gr-7C] | 0.074 | 8.33 | YES | 1 | 1 | 1.31 | 0.97 | YES | YES | 0 | 1 | 1 | 1st, YES; | YES; | 1 | 1 | – | – | – | – | FOXO3-dependency for H2O2-resistance, at 10 uM - with H2O2, 1st experiment (FOXO3): 1st, YES;; FOXO3-dependency for H2O2-resistance, at 10 uM (experiment 3) - with & without H2O2 (FOXO3): Partial; FOXO3-dependency for H2O2-resistance (experiment 3) (FOXO3): Partial; FOXO3-dependency for H2O2-resistance, 1st experiment (FOXO3): YES;; Assay 16: FOXO3-dependency for H2O2-resistance (FOXO3): YES; Requirement of FOXO3 to promote H2O2-resistance (FOXO3): required FOXO3; Survival of NRF2 siRNA-transfected cells in the absence of H2O2 (NRF2): could reduce the survival; Assay 17: NRF2-dependency for H2O2-resistance (NRF2; 10 uM): YES; NRF2-dependency of H2O2-resistance (NRF2 siRNA knockdown) (NRF2): significantly attenuate; viability of non-stressed cells, reduced by (NRF2; human, 24 h, 10 uM): by 60%) |
| O=C1NCCCc2cc(Cl)sc21 [O1] | 2.95 | 17.8 | YES | 0 | 0 | 1.84 | 1.86 | YES | YES | 1 | 1 | 1 | 1st, partial; | partial; | 1 | 1 | YES | YES | YES | YES | NRF2-dependency for H2O2-resistance, at 10 uM - with H2O2, 2nd experiment (NRF2; 10 uM): 2nd, partial.; NRF2-dependency for H2O2-resistance, 2nd experiment (NRF2; [7]): partial.; Assay 17: NRF2-dependency for H2O2-resistance (NRF2; 10 uM): YES; NRF2-dependency of H2O2-resistance (NRF2 siRNA knockdown) (NRF2): significantly attenuate |
| CC1C(=O)C(C)C(c2cc(Cl)ccc2O)NC1c1cc(Cl)ccc1O (centres unmarked) [O6] | 285 | 22.2 | YES | 0 | 0 | 2.18 | 2.05 | YES | YES | 1 | 1 | 1 | – | – | 0 | 0 | YES | YES | YES | YES | – |
| O=C(Nc1nc(C23CC4CC(CC(C4)C2)C3)cs1)C(c1ccccc1)c1ccccc1 [O10] | 12.6 | 8.91 | YES | 0 | 0 | 2.73 | 2 | YES | YES | 1 | 1 | 1 | – | – | 0 | 0 | YES | YES | YES | YES | – |
| COc1cc2c(no[n+]2[O-])n2nnnc12 [O11] | – | – | YES | 0 | 0 | – | – | YES | YES | 1 | 1 | 1 | – | – | 0 | 0 | YES | YES | YES | YES | Experiment 1, HDF cells (under H2O2 stress treatment), at 10 uM (fold change) ([1]; Experiment 1, HDF cells): 16.57 fold change; Experiment 2, HDF cells (under H2O2 stress treatment), at 10 uM (fold change) ([1]; Experiment 2, HDF cells): 55.68 fold change; Exp. 1, under CdCl2 stress treatment, at 10 uM (fold change) (WI-38 cells; Exp. 1, WI-38 cells, 10 uM, normalized ATP measurement): 3.78 fold change; Exp. 2, under CdCl2 stress treatment, at 10 uM (fold change) (WI-38 cells; Exp. 2, WI-38 cells, 10 uM, normalized ATP measurement): 2.80 fold change |
| CCCC(=O)Nc1ccc(-c2cn3cccc(C)c3n2)cc1 [O12] | 264 | 49.2 | YES | 0 | 0 | 1.36 | 1.59 | – | NO * | 1 | 0 | 0 | – | – | 0 | 0 | YES | YES | YES | YES | – |
| O=C(c1ccc([N+](=O)[O-])o1)N1CCc2ccccc21 [O13] | 11.2 | 60.5 | YES | 0 | 0 | 1.27 | 1.55 | YES | YES | 0 | 1 | 1 | – | – | 0 | 0 | – | – | – | – | – |
| Oc1ncnc2sc3c(c12)CCC3 [O14] | 2.87 | 4.73 | YES | 0 | 0 | 2.2 | 2.69 | YES | YES | 1 | 1 | 1 | – | – | 0 | 0 | YES | YES | YES | YES | – |
| CCCN1C/C(=C\c2ccc(F)cc2)C(=O)/C(=C/c2ccc(F)cc2)C1 [O15] | 0.57 | 1.77 | YES | 1 | 1 | 0.18 | 0.57 | YES | YES | 0 | 1 | 1 | 1st, YES; | YES; | 1 | 1 | – | – | – | – | FOXO3-dependency for H2O2-resistance, at 10 uM - with H2O2, 1st experiment (FOXO3): 1st, YES;; FOXO3-dependency for H2O2-resistance, at 10 uM (experiment 3) - with & without H2O2 (FOXO3): YES; FOXO3-dependency for H2O2-resistance (experiment 3) (FOXO3): YES; FOXO3-dependency for H2O2-resistance, 1st experiment (FOXO3): YES;; Assay 16: FOXO3-dependency for H2O2-resistance (FOXO3): YES; Requirement of FOXO3 to promote H2O2-resistance (FOXO3): required FOXO3; NRF2-dependency for H2O2-resistance, at 10 uM - with H2O2, 2nd experiment (NRF2; 10 uM): 2nd, YES.; NRF2-dependency for H2O2-resistance, at 10 uM (experiment 3) - with & without H2O2 (NRF2; 10 uM, experiment 3, with & without H2O2): YES; NRF2-dependency for H2O2-resistance (experiment 3) (NRF2; 10 uM, with & without H2O2, NRF2 knockdown in WI-38 cells, YES = resistance reduced by at least 50%, partial = 25% to 50%): YES; NRF2-dependency for H2O2-resistance, 2nd experiment (NRF2; [7]): YES.; Assay 17: NRF2-dependency for H2O2-resistance (NRF2; 10 uM): YES; Reduction of H2O2-resistance capacity upon NRF2 knockdown, on average (NRF2; 3 of 3 experiments): ~90%; NRF2-dependency of H2O2-resistance (NRF2 siRNA knockdown) (NRF2): significantly attenuate |
| [O-][n+]1onc2c3nsnc3c(Br)cc21 [O17] | 3.35 | 48.5 | YES | 0 | 0 | 0.95 | 1.35 | – | – | 0 | 0 | 0 | – | – | 0 | 0 | – | – | – | – | – |

Source: patent US11413278B2, “Compounds and methods for promoting stress resistance” (priority 2015, dated 2022)
